Data set [1] deals with T1, OATP1B3 (Homo sapiens, UniProt Q9NPD5).
T1 sequence (Q9NPD5 1-702): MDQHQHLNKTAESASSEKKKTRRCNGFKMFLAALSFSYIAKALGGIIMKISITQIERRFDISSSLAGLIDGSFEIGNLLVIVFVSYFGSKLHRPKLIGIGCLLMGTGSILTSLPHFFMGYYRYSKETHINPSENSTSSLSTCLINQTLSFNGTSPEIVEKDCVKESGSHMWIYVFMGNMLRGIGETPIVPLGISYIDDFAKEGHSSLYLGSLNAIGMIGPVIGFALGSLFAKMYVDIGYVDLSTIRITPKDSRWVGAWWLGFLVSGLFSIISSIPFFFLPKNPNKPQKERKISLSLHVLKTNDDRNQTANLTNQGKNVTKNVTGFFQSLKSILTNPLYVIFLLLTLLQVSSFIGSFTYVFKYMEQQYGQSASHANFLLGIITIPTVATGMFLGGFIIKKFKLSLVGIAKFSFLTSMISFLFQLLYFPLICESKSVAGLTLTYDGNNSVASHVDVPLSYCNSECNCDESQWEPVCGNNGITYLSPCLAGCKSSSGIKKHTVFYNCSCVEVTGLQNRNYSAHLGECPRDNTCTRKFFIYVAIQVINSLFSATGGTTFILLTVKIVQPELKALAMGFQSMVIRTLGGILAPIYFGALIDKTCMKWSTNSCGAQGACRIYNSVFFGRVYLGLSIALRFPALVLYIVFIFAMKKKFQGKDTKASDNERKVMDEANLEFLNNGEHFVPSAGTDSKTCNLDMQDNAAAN
The experiment in a line: Uptake into stable transfected OATP1B3 HEK 293 cells. It counts as cell-based. The note with it: 100 µM, 40 min, relative to RC1 (Gd-EOB-DTPA). As for the experimental part:
Human transfected OATP1B3 human embryonic kidney 293 cells (OATP1B3 HEK 293, SLCO1B3, Entrez Gene ID: 28234) were used (Leonhardt M et al. Drug Metab Dispos. 2010 Jul;38(7):1024-8). The following culture medium was used: 500 mL DMEM (Dulbecco's Modified Eagle Medium - high Glucose, D6429), 50 mL FCS (fetal bovine serum, Fa. Sigma, F7524), 5.8 mL G418 (Geneticin, Fa. Gibco 10131-027) and 5 mL Pen-Strep. (Penicillin-Streptomycin, Fa. Gibco, Ref 15140-122). Cryopreserved cells were shortly thawed in water bath and diluted in 10 mL warm culture medium (37°C). After medium change the cells were grown for 3d in a 25 cm^2 cell culture flask. After 3 to 5d the cells were transferred into 75 cm^2 flasks. For the splitting of cells these were incubated with 1.5 mL trypsin (Trypsin-EDTA (1x) 0,05%, Ref 25300-054 100ml, Fa. Gibco) for 3-5 min in the incubator (37°C, 5% CO2 and […]). After centrifugation and washing with medium the cells were counted (50 µL cell suspension and 50 µL trypan blue (Trypan Blue Solution, 93595-50ml, Fa. Fluka). Cells were cultured (1×10^5 cells/well) in poly-D-lysine coated 24-well plates (Fa. Corning, Ref: 354414) in 1.5 mL medium per well. After 48 hours in the incubator the medium was changed and 1.5 mL/well sodium butyrate containing medium were added (40 mL culture medium plus 400 µL Na-Butyrate, Fa. Sigma Aldrich B5887-5G, 250 mg in 2.27 mL MilliQ water). After 24 hours in the incubator the medium was vacuumed off and 1.5 mL transport buffer was added and incubated for 10 min. The transport buffer contains the following ingredients: 500 mL HBSS (Hank's balanced salt solution, Hyclone, SH30268.01), 5 mL HEPES buffer (4-(2-hydroxyethyl)-1-piperazine-ethanesulfonic acid, Gibco 15630-056) and 3.9 mL glucose (Sigma, G8270-100, 90 g/200mL MilliQ water). All test items were prepared in transport buffer at a final concentration of 100 µM from stock solutions (180 to 500 mM concentration). The OATP1B3 HEK 293 cells were incubated with test solutions (test item in transport buffer 500 µL) for 40min on a thermoshaker without shaking (PHMP, Fa. Grant Bio). Triplicates were performed for each test item. After incubation the cells were washed with 2 mL of cold PBS (+) buffer (Dulbeccos PBS +, Fa. Gibco). […] As a reference standard Gd-EOB-DTPA (gadoxetate) is used in the same well plate. The OATP1B3 HEK 293 uptake of the test compound is calculated relative to gadoxetate (resulting in the unit % of RC1).

Data set [2] can be described thus: Relaxivity measurements at 1.41 T in water and human plasma. It is filed as physicochemical. The note with it: 37°C, normalized to Gd. How it is done: Relaxivity measurements at 1.41 T were performed using a MiniSpec mq60 spectrometer (Bruker Analytik, Karlsruhe, Germany) operating at a resonance frequency of 60 MHz and a temperature of 37°C. The T1 relaxation times were determined using the standard inversion recovery (IR) method with a fixed relaxation delay of at least 5 × T1. The variable inversion time (TI) was calculated automatically by the standard software of the MiniSpec mq60 (8 steps). The T2 measurements were performed by using a Carr-Purcell-Meiboom-Gill (CPMG) pulse sequence, applying a relaxation delay of at least 5 × T1.
Each relaxivity measurement was performed using three different Gd concentrations (3 concentrations between 0.05 and 2 mM). The T1 and T2 relaxation times of the example compounds 1 to 10 were measured in different media for example in water and human plasma. Human plasma preparation: For each experiment fresh blood was taken from a volunteer using 10 mL citrate-tubes (Sarstedt S-Monovette 02.1067.001, 10 mL, Citrate). The 10 mL citrate-tubes were carefully inverted 10 times to mix blood and anticoagulant and centrifuged for 15min at 1811 g at RT (Eppendorf, Centrifuge 5810R).
The relaxivities ri (where i=1, 2) were calculated based on the measured relaxation rates Ri in water and plasma: ri = (Ri−Ri(0))/CGd [formula] where Ri(0) represent the relaxation rate of the respective solvent and CGd the concentration of the compound normalized to the Gadolinium. The Gadolinium concentrations of the investigated solutions were verified by Inductively Coupled Plasma Mass Spectrometry (ICP-MS Agilent 7500a, Waldbronn, Germany). Table 3: Relaxivities of investigated compounds in water and human plasma at 1.41 T and relaxivities of Reference compounds 1-3 (RC1-RC3) at 1.5 T in water and bovine plasma. All values are measured at 37°C and normalized to Gd and given in L mmol-1 s-1.

For data set [3], the target named is T1, OATP1B3. The experiment in a line: Uptake into stable transfected OATP1B3 HEK 293 cells. The note with it: OATP1B3-HEK 293 cell uptake with Rifampicine. It counts as cell-based.

As for “Gadolinium-2,2',2"-[10-(carboxymethyl)-2-(4-ethoxybenzyl)-1,4,7,10-tetraazacyclododecane-1,4,7-triyl]triacetate [Example 8]”, the “Uptake into OATP1B3-HEK 293 cells” value at OATP1B3 [1] is given as 94 % of RC1. In data set [2], this substance had a r1 human plasma of 6.5 L/mmol/s and a r1 water of 4.7 L/mmol/s. Besides, on OATP1B3 [3], the “Inhibition Rifampicine” value came to 99 % inhibition.

“Gadolinium-2,2',2"-[10-(carboxymethyl)-2-(4-ethoxybenzyl)-1,4,7,10-tetraazacyclododecane-1,4,7-triyl]triacetate [Example 9]”: the “Uptake into OATP1B3-HEK 293 cells” value on OATP1B3 [1] is on record as 13 % of RC1. In data set [2], this substance returned a r1 human plasma of 5.6 L/mmol/s and a r1 water of 4.3 L/mmol/s. Moreover, the “Inhibition Rifampicine” value on OATP1B3 [3] was found to be 94 % inhibition.

On to “Gadolinium-2,2',2"-[(2S)-2-(4-butoxybenzyl)-10-(carboxymethyl)-1,4,7,10-tetraaza cyclododecane-1,4,7-triyl]triacetate [Example 12]”, for which the “Uptake into OATP1B3-HEK 293 cells” value on OATP1B3 [1] was 66 % of RC1. For the same substance, in data set [2], the r1 human plasma came to 8.8 L/mmol/s and the r1 water stood at 4.7 L/mmol/s. The “Inhibition Rifampicine” value on OATP1B3 [3] came to 98 % inhibition.

“Gadolinium-2,2',2"-[(2S)-2-(4-butoxybenzyl)-10-(carboxymethyl)-1,4,7,10-tetraaza cyclododecane-1,4,7-triyl]triacetate [Example 13]”: the “Uptake into OATP1B3-HEK 293 cells” value at OATP1B3 [1] is listed as 383 % of RC1. Further, in data set [2], the r1 human plasma came out at 9.8 L/mmol/s and the r1 water was found to be 5.3 L/mmol/s. Besides, at OATP1B3 [3], the “Inhibition Rifampicine” value came to 98 % inhibition.

Consider “Gadolinium-2,2',2"-[(2S)-10-(carboxymethyl)-2-(4-ethoxybenzyl)-1,4,7,10-tetraazacyclododecane-1,4,7-triyl]triacetate [Example 10]”, for which, at OATP1B3 [1], the “Uptake into OATP1B3-HEK 293 cells” value is recorded as 80 % of RC1. In addition, in data set [2], the r1 human plasma turned out to be 6.4 L/mmol/s and the r1 water came to 4.8 L/mmol/s. Besides, the “Inhibition Rifampicine” value on OATP1B3 [3] amounted to 96 % inhibition.

Consider “Gadolinium-2,2',2"-[(2S)-10-(carboxymethyl)-2-(4-ethoxybenzyl)-1,4,7,10-tetraazacyclododecane-1,4,7-triyl]triacetate [Example 11]”, for which the “Uptake into OATP1B3-HEK 293 cells” value at OATP1B3 [1] is reported as 32 % of RC1. Also, in data set [2], the r1 human plasma was 6.2 L/mmol/s and the r1 water turned out to be 4.4 L/mmol/s. The “Inhibition Rifampicine” value at OATP1B3 [3] came out at 90 % inhibition.

The values above are taken from patent EP4335840A1, “NEW CONTRAST AGENTS FOR USE IN DIAGNOSTIC IMAGING” (priority 2022, dated 2024).
